From patent publication US20180207228A1, “PEPTIDE COMBINATIONS AND USES THEREOF FOR TREATING GRASS ALLERGY” (ALK-Abelló A/S, priority 2015, published 2018)
Where no end group is shown, it is not given here.

System: allergen specific T cells
Experiment: T cell proliferation assay (72 h) on donor derived T cell lines (TCL02/TCL03)
Format: cell-based, human
Conditions: for Proliferation % donor coverage (TCL-02 DK1): T cell lines TCL-02 DK1, 30 donors, hit criteria SI>=2, CPM>=1000; for Proliferation strength (TCL-02 DK1): T cell lines TCL-02 DK1, strength of response (average relative magnitude); for average relative magnitude: reference peptides of WO2010/089554, proliferation only; for donor coverage of homologue peptide compared with native Phleum peptide / T cell coverage of modified peptide compared to the parent peptide: 2 μg/ml; for donor coverage of homologue peptide compared with native Phleum peptide: TCL-02 DK-2, 21 donors; for T cell coverage of modified peptide compared to the parent peptide: TCL03-DK1 and DK2, 27 donors
Excerpt: Isolated PBMCs (peripheral blood mononuclear cells) obtained from the donors described in Example 2 were CD8 depleted and the T cell lines were established by stimulating the cultures with nPhl p1, mix of nPhl p 2 and […] 5 and […] established for each of the donors tested by stimulating with the mixture of above listed allergens. Grass allergic donors were recruited (cohort DK1 including 30 grass allergic individuals, DK2 including 24 grass allergic individuals and US1 including 15 grass allergic individuals). PBMCs were isolated from freshly drawn heparinized blood by gradient centrifugation on lymphoprep (Nycomed, Norway), washed twice and re-suspended in RPMI 1640 medium with HEPES and ultraglutamine (Cambrex, Belgium) supplemented with 5% v/v human AB-serum (Cambrex, Belgium), 100 units/ml penicillin, and 0.1 mg/ml streptomycin (Sigma, St Louis, USA) (referred to as 5% AB-medium). Aliquots of the isolated PBMCs were frozen and were thawed later to stimulate the T cell lines. Additionally either fresh or thawed PBMCs were used as antigen presenting cells (APCs) in the proliferation assay as described later. In some cases the PBMCs were freezed at this stage and thawed later on to continue the experiment as described in the following. The isolated PBMCs (fresh or thawed) were CD8 depleted by MACS magnetic depletion according to the manufacturer's instructions (Miltenyi Biotec, Bergisch Gladbach, Germany). On day 0 the CD8-depleted PBMCs (2×10^6/ml) were stimulated in 1 ml bulk cultures in AB medium in 24 well plates (Nunc, Denmark) with the mixture of natural allergens: nPhl p 1 (0.5 μg/ml), mix of […]). […] On day 14 cells were harvested to obtain T cell line generation 01 (referred to as TCL01). Restimulation of T cell lines were performed in AB-medium with the thawed autologous PBMCs (10^6/well, irradiated 2500 Rad), the above mixture of natural allergens (concentration as mentioned above), and PHA-P (0.5 μg/ml, Difco, Detroit, Mich., USA). rIL-2 was added at day 17, 18 and 19. On day 24 cells were harvested to obtain T cell line generation 02 (referred as TCL02). T cells were isolated, washed, counted and used for T cell proliferation assay as described later. Remaining cells were frozen for later thawing and re-stimulations. The T cell line generation 2 (TCL02) were thawed and were re-stimulated with allogeneic Epstein Bar Virus transformed lymphoblastoid cell lines (EBV) B cells (JY cells, 10^5/well, irradiated 3500 Rad), allogeneic PBMCs (10^6/well, irradiated 2500 Rad), and 0.5 μg/ml PHA-P and subsequent addition of rIL-2 at days 3-5 to generate T cell line generation 03 (referred to as TCL03). […] To summarize ELISpot experiments were carried out at day 14 (with TCL01) and proliferation assay on either day 24 (with TCL02) or at day 34 (with TCL03). […] To ensure that all T cell epitopes regions from the major and intermediate grass allergens of the grass were identified T cell screening was carried out with either overlapping peptides or selected peptides. […] These were overlapping 20-mer peptides spanning the entire full length amino acid sequence of […] and selected high binder peptides from Phl p 4 were tested. Additionally 21, 15 mer peptides were tested which were derived from various group 1 and 5 allergens. Also, 67 peptides from homologous grass allergens were tested. Finally some reference peptides and mixes thereof were also tested. The 15-mer peptides were selected on the basis of predicted and measured promiscuous HLA binding and of sequence homology between known proteins sequences from the relevant pooideae grasses and the Bermuda grass. […] To get comprehensive data from all the donors the peptides were tested in both Fluorospot/Elispot (day 14, TCL01) and proliferation (day 24, TCL02).

Compound | donor coverage of homologue peptide compared with native Phleum peptide | further results
KKPEVKYAVFEAALTKAIT-OH [compound 143] |  | Proliferation % donor coverage (TCL-02 DK1): 48.28%; Proliferation strength (TCL-02 DK1): 7.50; average relative magnitude: around 8
WGAVWRIDTPDKLTGPFTVR-OH [compound 309] | low in donor coverage | 
SEFEDVIPEGWKADTSYSAK-OH [compound 311] | low in donor coverage | 
IRLTSEGGAHLVQDDVIPAN-OH [compound 323] | low in donor coverage | 
SGKAFGAMAKKGQED-OH [compound 134, SGKAFGAMAKKGQED] |  | Proliferation % donor coverage (TCL-02 DK1): 27.59%; Proliferation strength (TCL-02 DK1): 4.00
TAATPATPATPATPAAVPSG [compound 340] | better donor coverage than the native peptides | 
CC[C@H](C)[C@H](NC(=O)[C@H](C)NC(=O)[C@H](CCCCN)NC(=O)[C@@H](NC(=O)[C@H](CC(C)C)NC(=O)[C@H](C)NC(=O)[C@H](C)NC(=O)[C@H](CCC(=O)O)NC(=O)[C@H](Cc1ccccc1)NC(=O)[C@@H](NC(=O)[C@H](C)NC(=O)[C@H](Cc1ccc(O)cc1)NC(=O)[C@H](CCCCN)NC(=O)[C@@H](NC(=O)[C@H](CCC(=O)O)NC(=O)[C@@H]1CCCN1C(=O)[C@@H](N)CCCCN)C(C)C)C(C)C)[C@@H](C)O)C(=O)N[C@H](C(=O)O)[C@@H](C)O [compound 242] |  | Proliferation % donor coverage (TCL-02 DK1): 48.28%; Proliferation strength (TCL-02 DK1): 7.20
WGAIWRIDPKKPLKGPFSIR-OH [compound 322] | not recognized by the T cell lines | 
IDKVDAAYRTAATAANAAPA-OH [compound 347] | comparable donor coverage | 
CC[C@H](C)[C@H](NC(=O)[C@H](CCCCN)NC(=O)[C@H](CCC(=O)O)NC(=O)[C@@H](NC(=O)[C@H](CC(C)C)NC(=O)[C@H](CCCCN)NC(=O)[C@H](CCC(N)=O)NC(=O)[C@@H](N)CCC(=O)O)[C@@H](C)CC)C(=O)N[C@@H](CC(N)=O)C(=O)N[C@@H](C)C(=O)NCC(=O)N[C@@H](Cc1ccccc1)C(=O)N[C@@H](CCCCN)C(=O)N[C@@H](C)C(=O)N[C@@H](C)C(=O)N[C@H](C(=O)N[C@@H](C)C(=O)N[C@@H](C)C(=O)N[C@@H](C)C(=O)N[C@@H](C)C(=O)O)C(C)C [compound 341] | better donor coverage than the native peptides | 
CC[C@H](C)[C@H](NC(=O)[C@@H](NC(=O)[C@H](CCCNC(=N)N)NC(=O)[C@H](CC(C)C)NC(=O)[C@H](C)NC(=O)[C@H](CCC(=O)O)NC(=O)[C@@H](NC(=O)[C@H](CC(C)C)NC(=O)[C@@H](NC(=O)[C@H](C)NC(=O)[C@@H](NC(=O)[C@H](Cc1ccc(O)cc1)NC(=O)[C@H](C)NC(=O)[C@H](CC(=O)O)NC(=O)[C@H](Cc1ccc(O)cc1)NC(=O)[C@H](CCCCN)NC(=O)[C@H](C)NC(=O)[C@@H](N)CCC(=O)O)C(C)C)[C@@H](C)O)[C@@H](C)O)C(C)C)C(=O)N[C@@H](C)C(=O)NCC(=O)O [compound 345] | comparable donor coverage | 
GFKAAVAAAAVVPPADKYKT-OH [compound 342] | better donor coverage than the native peptides | 
YHFDLSGHAFGSMAKKGEEQ-OH [compound 303] | comparable to the native peptides | 
YHFDLSGKAFGAMAKKGQED-OH [compound 316] | comparable to the native peptides | 
CC(C)[C@H](NC(=O)[C@@H](NC(=O)[C@H](Cc1ccccc1)NC(=O)[C@H](CCCCN)NC(=O)[C@H](CC(=O)O)NC(=O)[C@H](CC(N)=O)NC(=O)[C@H](C)NC(=O)[C@@H]1CCCN1C(=O)[C@H](C)NC(=O)[C@H](C)NC(=O)[C@H](CC(N)=O)NC(=O)[C@H](C)NC(=O)[C@H](C)NC(=O)[C@@H](NC(=O)[C@H](C)NC(=O)[C@H](C)NC(=O)[C@@H](NC(=O)[C@@H](N)CCCNC(=N)N)[C@@H](C)O)[C@@H](C)O)[C@@H](C)O)C(=O)N[C@@H](Cc1ccccc1)C(=O)N[C@@H](CCC(=O)O)C(=O)O [compound 348] | comparable donor coverage | 
KDKWIELKESWGAVWRIDTP-OH [compound 308] | comparable to the native peptides | 
LVQDDVIPANWKPDTVYTSK-OH [compound 324] | low in donor coverage | 
SDEFIPMKSSWGAIWRIDPK-OH [compound 321] | comparable to the native peptides | 

Compound | donor coverage of homologue peptide compared with native Phleum peptide | further results
DKYKTFVETFGTATNKAFVE-OH [compound 343] | better donor coverage than the native peptides | 
GLGSRASYEIKSKEPVESSG-OH [compound 313] | low in donor coverage | 
CC[C@H](C)[C@H](NC(=O)[C@H](Cc1ccccc1)NC(=O)[C@H](C)NC(=O)[C@H](CC(=O)O)NC(=O)[C@H](Cc1ccc(O)cc1)NC(=O)[C@H](CCCCN)NC(=O)[C@H](C)NC(=O)[C@@H](N)CCC(=O)O)C(=O)N[C@@H](C)C(=O)N[C@@H](C)C(=O)N[C@@H](CC(C)C)C(=O)N[C@H](C(=O)N[C@@H](CCC(=O)O)C(=O)N[C@@H](C)C(=O)N[C@@H](CC(C)C)C(=O)N[C@@H](CCCNC(=N)N)C(=O)N[C@H](C(=O)N[C@H](C(=O)N[C@@H](C)C(=O)NCC(=O)O)[C@@H](C)CC)C(C)C)[C@@H](C)O [compound 358] | comparable donor coverage | 
VRYTTEGGTKSEFEDVIPEG-OH [compound 310] | low in donor coverage | 
PTPRTPPLLPPPRARDKATL-OH [compound 355] | better donor coverage than the native peptides | 
KYDAYVATLTEALR-OH [compound 137] |  | Proliferation % donor coverage (TCL-02 DK1): 27.59%; Proliferation strength (TCL-02 DK1): 6.30
KSSWGAIWRIDPKKPLK-OH [compound 136] |  | Proliferation % donor coverage (TCL-02 DK1): 17.24%; Proliferation strength (TCL-02 DK1): 1.90
Ac-WGAIWRIDTPDKLTGPFTVR-NH2 [compound 259] |  | T cell coverage of modified peptide compared to the parent peptide: markedly increased T cell coverage
SLGAAYDSYKFIPTLVAAVK-OH [compound 350] | loose some of the donor coverage | 
WGAIWRIDTPDKLTGPFTVR-NH2 [compound 258] |  | T cell coverage of modified peptide compared to the parent peptide: markedly increased T cell coverage
ASRRPWWASVPPADKFKTFA-OH [compound 356] | loose some of the donor coverage | 
GRGSGSSFEIKSTKPESSSG-OH [compound 301] | comparable to the native peptides | 
KFIPTLVAAVKQAYAAKQAT-OH [compound 351] | loose some of the donor coverage | 
KFIPTLVAAVKQAYAAKQ-OH [compound 138] |  | Proliferation % donor coverage (TCL-02 DK1): 31.03%; Proliferation strength (TCL-02 DK1): 4.20
APEVKYAVFEAGLTKAITAM-OH [compound 365] | loose some of the donor coverage | 
LKKAVTAMSEAEK-OH [compound 139] |  | Proliferation % donor coverage (TCL-02 DK1): 20.69%; Proliferation strength (TCL-02 DK1): 2.80
PEVKYAVFEAALTKAIT-OH [compound 140] |  | Proliferation % donor coverage (TCL-02 DK1): 55.17%; Proliferation strength (TCL-02 DK1): 8.20; average relative magnitude: around 8
FIPMKSSWGA-OH [compound 135] |  | Proliferation % donor coverage (TCL-02 DK1): 13.79%; Proliferation strength (TCL-02 DK1): 1.50
